Experimental data from the supplement of paper PMC10307832.

How the values were obtained:
Experiment in all cases: relative viability (nuclei count vs DMSO), 5 days (fraction); higher = more cells survive
[1] = compound: COc1cc2nc(N3CCCN(C)CC3)nc(NC3CCN(Cc4ccccc4)CC3)c2cc1OC + Cc1cc(Nc2cc(N3CCN(C)CC3)nc(Sc3ccc(NC(=O)C4CC4)cc3)n2)n[nH]1 [Tozasertib] (partner 0.1 µM)
Outline: (§1)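 Lung cancer cell lines in 1536-well plates got either a single drug or a fixed anchor-drug dose together with five library-drug doses (not always all listed) in √10 steps, by pin tool, on the day after seeding. Nuclei were counted after 5 days, and relative viability is the treated-to-vehicle ratio of nuclei counts. Values are medians of duplicate plates.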

AZD6482 + Pemetrexed = compound: Cc1cc([C@@H](C)Nc2ccccc2C(=O)O)c2nc(N3CCOCC3)cc(=O)n2c1 [AZD6482] + Nc1nc2[nH]cc(CCc3ccc(C(=O)N[C@@H](CCC(=O)O)C(=O)O)cc3)c2c(=O)[nH]1 [Pemetrexed] (partner 0.2 µM)
Outline: as §1

AZD6482 + Crizotinib = compound: Cc1cc([C@@H](C)Nc2ccccc2C(=O)O)c2nc(N3CCOCC3)cc(=O)n2c1 [AZD6482] + C[C@@H](Oc1cc(-c2cnn(C3CCNCC3)c2)cnc1N)c1c(Cl)ccc(F)c1Cl [Crizotinib] (partner 1 µM)
Outline: as §1

AZD6482 + Navitoclax = compound: Cc1cc([C@@H](C)Nc2ccccc2C(=O)O)c2nc(N3CCOCC3)cc(=O)n2c1 [AZD6482] + CC1(C)CCC(c2ccc(Cl)cc2)=C(CN2CCN(c3ccc(C(=O)NS(=O)(=O)c4ccc(N[C@H](CCN5CCOCC5)CSc5ccccc5)c(S(=O)(=O)C(F)(F)F)c4)cc3)CC2)C1 [Navitoclax] (partner 0.5 µM)
Outline: as §1

Row | Cell Line | relative viability ([1]; first compound 0.2 µM) | relative viability ([1]; first compound 0.6325 µM) | relative viability ([1]; first compound 2 µM) | relative viability ([1]; first compound 6.325 µM) | relative viability (AZD6482 + Pemetrexed; first compound 0.08 µM) | relative viability (AZD6482 + Pemetrexed; first compound 0.253 µM) | relative viability (AZD6482 + Pemetrexed; first compound 0.8 µM) | relative viability (AZD6482 + Pemetrexed; first compound 2.53 µM) | relative viability (AZD6482 + Pemetrexed; first compound 8 µM) | relative viability (AZD6482 + Crizotinib; first compound 0.08 µM) | relative viability (AZD6482 + Crizotinib; first compound 0.253 µM) | relative viability (AZD6482 + Crizotinib; first compound 0.8 µM) | relative viability (AZD6482 + Crizotinib; first compound 2.53 µM) | relative viability (AZD6482 + Crizotinib; first compound 8 µM) | relative viability (AZD6482 + Navitoclax; first compound 0.08 µM) | relative viability (AZD6482 + Navitoclax; first compound 0.253 µM) | relative viability (AZD6482 + Navitoclax; first compound 0.8 µM) | relative viability (AZD6482 + Navitoclax; first compound 2.53 µM) | relative viability (AZD6482 + Navitoclax; first compound 8 µM)
1 | LU99A | 0.238 | 0.255 | 0.283 | 0.262 | 0.187 | 0.2 | 0.158 | 0.17 | 0.172 | 0.609 | 0.495 | 0.591 | 0.466 | 0.471 | 0.753 | 0.757 | 0.81 | 0.515 | 0.529
2 | NCI-H1355 | 0.565 | 0.539 | 0.582 | 0.546 | 0.939 | 1.07 | 1.07 | 0.856 | 0.875 | 0.777 | 0.959 | 1.07 | 0.797 | 0.726 | 0.551 | 0.697 | 0.711 | 0.588 | 0.61
3 | HCC-78 | 0.388 | 0.439 | 0.314 | 0.409 | 0.87 | 0.857 | 0.926 | 0.862 | 0.953 | 0.295 | 0.322 | 0.245 | 0.227 | 0.235 | 0.663 | 0.438 | 0.433 | 0.203 | 0.306
4 | NCI-H1563 |  |  |  |  | 0.666 | 0.676 | 0.642 | 0.605 | 0.698 | 0.783 | 0.821 | 0.82 | 0.663 | 0.769 |  |  |  |  | 
5 | HCC-15 | 0.477 | 0.378 | 0.557 | 0.368 | 0.208 | 0.231 | 0.244 | 0.228 | 0.212 | 0.755 | 0.729 | 0.763 | 0.699 | 0.869 | 0.666 | 0.616 | 0.626 | 0.515 | 0.523
6 | EKVX | 0.41 | 0.34 | 0.476 | 0.542 | 0.368 | 0.373 | 0.317 | 0.265 | 0.348 | 0.855 | 0.939 | 0.788 | 0.537 | 0.584 | 0.817 | 0.868 | 0.786 | 0.535 | 0.57
7 | NCI-H2087 | 0.228 | 0.269 | 0.292 | 0.304 | 0.682 | 0.63 | 0.596 | 0.593 | 0.674 | 0.805 | 0.93 | 0.997 | 0.827 | 0.984 | 0.847 | 0.909 | 0.966 | 0.818 | 0.895
8 | LK-2 | 0.199 | 0.178 | 0.187 | 0.19 | 0.276 | 0.276 | 0.263 | 0.193 | 0.176 | 0.24 |  | 0.263 | 0.244 | 0.239 | 0.779 | 0.716 | 0.932 | 0.681 | 0.782
9 | NCI-H1437 | 0.442 | 0.433 | 0.469 | 0.461 | 0.314 | 0.307 | 0.306 | 0.274 | 0.225 | 0.921 | 0.949 | 1.02 | 0.788 | 0.872 | 1.06 | 1.13 | 1.12 | 0.816 | 0.692
